Article PMC8275010 (Nature medicine, 2021)
Values joined by “and” are separate entries in the source; they are usually repeats but may differ in a detail not shown here. Identical values can stand only once. One block for each compound: values may come before it.

Legend:
[1] = system: human immortalized NF1−/− Schwann cells (iPNF95.6); assay: Caspase 3/7 Glo apoptosis assay; assay type: cell-based; conditions: 24 hours; cabozantinib 39 nM to 5 μM; Navitoclax 1 μM positive control
AXL [2] = target: T1, AXL (Mus musculus, UniProt Q00993); assay: MIB/MS kinome profiling of sciatic nerve tumor tissue after in vivo treatment; conditions: 7 days of sustained treatment vs vehicle
T1 sequence (Q00993 19-888): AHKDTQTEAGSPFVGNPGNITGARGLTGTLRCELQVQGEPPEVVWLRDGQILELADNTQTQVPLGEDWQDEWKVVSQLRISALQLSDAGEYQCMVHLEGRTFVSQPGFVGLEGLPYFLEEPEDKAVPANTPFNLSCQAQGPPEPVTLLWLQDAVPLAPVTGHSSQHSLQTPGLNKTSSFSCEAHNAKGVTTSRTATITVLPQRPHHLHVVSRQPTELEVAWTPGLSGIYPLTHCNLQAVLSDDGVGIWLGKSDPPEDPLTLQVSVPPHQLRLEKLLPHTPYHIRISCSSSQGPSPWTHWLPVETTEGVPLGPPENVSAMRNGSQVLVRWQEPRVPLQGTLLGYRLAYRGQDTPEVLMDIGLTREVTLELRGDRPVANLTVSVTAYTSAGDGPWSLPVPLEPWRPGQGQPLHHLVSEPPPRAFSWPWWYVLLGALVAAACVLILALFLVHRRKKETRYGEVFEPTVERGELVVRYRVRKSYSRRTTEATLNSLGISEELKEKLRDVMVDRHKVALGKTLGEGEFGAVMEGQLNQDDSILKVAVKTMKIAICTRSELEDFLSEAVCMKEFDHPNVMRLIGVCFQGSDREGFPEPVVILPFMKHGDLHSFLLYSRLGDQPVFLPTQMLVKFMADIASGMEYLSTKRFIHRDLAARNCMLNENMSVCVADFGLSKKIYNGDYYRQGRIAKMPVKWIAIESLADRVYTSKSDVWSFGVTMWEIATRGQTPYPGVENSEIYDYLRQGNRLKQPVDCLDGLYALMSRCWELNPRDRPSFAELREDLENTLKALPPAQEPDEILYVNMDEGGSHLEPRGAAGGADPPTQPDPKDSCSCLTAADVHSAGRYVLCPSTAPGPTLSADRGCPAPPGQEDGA

[3] = system: malignant peripheral nerve sheath tumor (MPNST) murine model; conditions: cabozantinib and mirdametinib; Nf1 and Trp53 compound mutations; cited from earlier work
[4] = Phase 2 trial NCT02101736: clinical pharmacokinetics; assay type: in vivo; conditions: 40 mg dose, human plasma
[5] = Phase 2 trial NCT02101736: safety and tolerability; design: species or system human; conditions: in vivo
DDR1 = target: T2, DDR1 (Mus musculus, UniProt Q03146); assay: MIB/MS kinome profiling of sciatic nerve tumor tissue after in vivo treatment; conditions: 7 days of sustained treatment vs vehicle
T2 sequence (Q03146 20-911): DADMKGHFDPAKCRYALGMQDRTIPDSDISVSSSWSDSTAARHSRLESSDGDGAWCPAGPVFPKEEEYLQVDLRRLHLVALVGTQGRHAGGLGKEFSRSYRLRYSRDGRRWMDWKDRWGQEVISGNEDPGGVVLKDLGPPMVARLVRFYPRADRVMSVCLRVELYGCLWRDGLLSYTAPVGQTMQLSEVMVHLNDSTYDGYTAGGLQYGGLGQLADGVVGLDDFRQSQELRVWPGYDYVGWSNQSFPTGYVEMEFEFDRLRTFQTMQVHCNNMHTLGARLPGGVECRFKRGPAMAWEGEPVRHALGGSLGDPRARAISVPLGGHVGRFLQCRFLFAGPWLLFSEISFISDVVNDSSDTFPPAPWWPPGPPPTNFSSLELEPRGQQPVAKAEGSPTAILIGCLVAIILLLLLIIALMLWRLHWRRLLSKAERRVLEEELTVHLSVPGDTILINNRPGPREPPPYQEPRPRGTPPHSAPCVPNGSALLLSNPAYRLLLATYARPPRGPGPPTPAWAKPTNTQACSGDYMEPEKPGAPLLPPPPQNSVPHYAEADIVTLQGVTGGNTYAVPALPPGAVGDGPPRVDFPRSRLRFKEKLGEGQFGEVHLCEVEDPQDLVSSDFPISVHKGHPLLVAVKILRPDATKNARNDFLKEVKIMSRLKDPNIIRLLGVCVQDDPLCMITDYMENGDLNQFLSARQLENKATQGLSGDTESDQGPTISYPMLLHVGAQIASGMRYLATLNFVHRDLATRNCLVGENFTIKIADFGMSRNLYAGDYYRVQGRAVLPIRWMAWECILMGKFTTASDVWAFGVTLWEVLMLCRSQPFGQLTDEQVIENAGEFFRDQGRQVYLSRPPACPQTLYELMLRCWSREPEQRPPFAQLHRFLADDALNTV

[6] = system: plexiform neurofibroma in Nf1^flox/flox;PostnCre mice; assay: Plexiform neurofibroma tumor burden and histopathology in Nf1flox/flox; assay type: in vivo, mouse
AXL [7] = assay: pAXL western blot after GAS6 stimulation; assay type: cell-based; conditions: GAS6 200-250 ng/mL; cabozantinib 1000-2500 nM; Schwann cells, fibroblasts, ECFCs
DDR2 = target: T3, DDR2 (Mus musculus, UniProt Q62371); assay: MIB/MS kinome profiling of sciatic nerve tumor tissue after in vivo treatment; conditions: 7 days of sustained treatment vs vehicle
T3 sequence (Q62371 22-854): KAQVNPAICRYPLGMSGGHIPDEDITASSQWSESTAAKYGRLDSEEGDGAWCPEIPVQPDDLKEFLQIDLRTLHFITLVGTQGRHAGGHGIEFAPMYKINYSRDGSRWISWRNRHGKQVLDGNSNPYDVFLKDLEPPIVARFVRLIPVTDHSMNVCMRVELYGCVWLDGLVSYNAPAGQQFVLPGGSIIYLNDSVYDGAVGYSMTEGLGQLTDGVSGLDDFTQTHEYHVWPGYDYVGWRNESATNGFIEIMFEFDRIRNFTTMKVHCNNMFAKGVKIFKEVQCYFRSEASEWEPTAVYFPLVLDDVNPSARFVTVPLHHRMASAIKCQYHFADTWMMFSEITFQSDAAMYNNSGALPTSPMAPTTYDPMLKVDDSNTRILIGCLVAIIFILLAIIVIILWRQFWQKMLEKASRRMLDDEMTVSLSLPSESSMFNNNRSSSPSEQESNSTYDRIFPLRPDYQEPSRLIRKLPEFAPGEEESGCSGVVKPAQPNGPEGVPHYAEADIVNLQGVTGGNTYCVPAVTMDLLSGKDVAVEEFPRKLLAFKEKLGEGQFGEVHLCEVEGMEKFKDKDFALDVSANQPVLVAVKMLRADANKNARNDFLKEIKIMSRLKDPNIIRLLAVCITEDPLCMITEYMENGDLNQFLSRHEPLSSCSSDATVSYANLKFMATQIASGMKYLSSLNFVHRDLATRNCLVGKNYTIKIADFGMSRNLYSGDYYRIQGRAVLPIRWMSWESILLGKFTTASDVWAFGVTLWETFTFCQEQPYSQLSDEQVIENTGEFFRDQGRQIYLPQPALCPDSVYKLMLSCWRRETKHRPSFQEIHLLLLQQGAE

[8] = system: plexiform neurofibroma tumor tissues; assay: TUNEL staining of nerve tissues of treated mice; assay type: in vivo, mouse
[9] = assay type: in vivo, human; conditions: baseline to cycle 12
[10] = system: NF1-related plexiform neurofibroma; assay type: in vivo, human
[11] = assay type: in vivo, mouse
AXL [12] = target: T1, AXL; assay: AXL in tumor bearing nerve tissue of treated mice; assay type: in vivo; conditions: 12 weeks of treatment vs vehicle; IHC and western blot
soluble AXL (sAXL) = assay: Mouse sAXL ELISA in plasma; assay type: in vivo; conditions: 12 weeks of treatment; vs WT mice or vehicle treated Nf1flox/flox;PostnCre mice
plexiform neurofibroma = conditions: cited from earlier work

Compound: CC1(C)CCC(c2ccc(Cl)cc2)=C(CN2CCN(c3ccc(C(=O)NS(=O)(=O)c4ccc(N[C@H](CCN5CCOCC5)CSc5ccccc5)c(S(=O)(=O)C(F)(F)F)c4)cc3)CC2)C1 [Navitoclax]
- apoptosis (caspase 3/7 activity) [1]: robust increase

- MIB binding of AXL (AXL [2]): loss of MIB binding
- dose-normalized mean trough level ([4]; Cycle 1 Day 15): 16.5 ng/mL/mg
- dose-normalized mean trough level ([4]; end of Cycle 1): 20.7 ng/mL/mg
- MIB binding of DDR1 (DDR1): loss of MIB binding
- MIB binding of DDR2 (DDR2): loss of MIB binding
- Tmax ([11]; Nf1flox/flox;PostnCre, mouse, plasma, po, 15 mg/kg): 2 h
- maximum concentration in plasma ([11]; single 15mg/kg oral gavage dose, Nf1flox/flox;PostnCre mice, plasma): 6800 ng/mL
- maximal concentration in nerve tissue ([11]; single 15mg/kg oral gavage dose, nerve tissue): 636 ng/g
- AXL in treated tissues (AXL [12]): significant decline
Compound: COc1cc2nccc(Oc3ccc(NC(=O)C4(C(=O)Nc5ccc(F)cc5)CC4)cc3)c2cc1OC [cabozantinib]
- tumor growth in MPNST murine model [3]: reduce growth
- participants requiring dose reductions while on study [5]: Seven
- participants with grade 3 adverse events [5]: 8
- patients requiring dose reduction or discontinuation of therapy due to AEs [5]: Nine
- reduction of number of PN per mouse ([6]; 15mg/kg daily oral gavage, 12 weeks, relative to vehicle control): approximately 60%
- reduction of mean volume of the proximal peripheral nerve roots ([6]; 15mg/kg daily oral gavage, 12 weeks, vs vehicle): 38%
- mast cell infiltration ([6]; toluidine blue stained sections, 12 weeks treatment vs vehicle, P = 0.1013): not significantly changed
- neoangiogenesis (blood vessels, CD31 immunohistochemistry) ([6]; treated tumors versus vehicle control, P < 0.0001): significant reduction
- Gas6 mediated activation of AXL at the biochemical level (pAXL) (AXL [7]): inhibited
- apoptosis in nerve tissues (TUNEL staining) [8]: negative for TUNEL staining
- mean decrease in worst tumor pain intensity ([9]; responder group): 3 points
- reduction in reported tumor pain (NRS-11), LSM estimate ([9]; responders, p<0.0001): 3.00
- change in PedsQL NF1 general pain and hurt scale, LSM estimate ([9]; total sample, p=0.0036, improvement): −14.98
- disease progression while on study ([10]; 19 evaluable participants): No patient had disease progression
- partial response rate (PR, ≥20% reduction in target lesion volume by MRI) ([10]; 19 evaluable participants, 40 mg escalated to 60 mg once daily): 42% and 42.1%
- participants in whom maximal tumor response was not achieved until cycle 18 ([10]; in vivo): 4
- participants in whom maximal tumor response was not achieved until cycle 24 ([10]; in vivo): 2
- number of participants with PR ([10]; of the 19 participants evaluable for response): 8
- apoptosis (caspase 3/7 activity) [1]: does not induce apoptosis
- sAXL in plasma (soluble AXL (sAXL)): significantly elevated

Compound: O=C(NOC[C@H](O)CO)c1ccc(F)c(F)c1Nc1ccc(I)cc1F [mirdametinib]
- tumor growth in MPNST murine model [3]: reduce growth

Compound: Cn1cnc2c(F)c(Nc3ccc(Br)cc3Cl)c(C(=O)NOCCO)cc21 [selumetinib]
- partial response rate (plexiform neurofibroma; children with progressive PN): 74%

Compound: pegylated interferon alfa-2b
- clinical outcome in PN (plexiform neurofibroma): only prolonged PN time to progression
